Results from US5998437A, “Benzimidazole derivatives” (Otsuka Pharmaceutical Co., Ltd., priority 1995, dated 1999).
Where two headings read alike, the source gives them in different places.

Assays:
[1] = tested on: rat A10 cells; assay: Activity for inhibiting proliferation of rat A10 cells ([3H]-thymidine uptake); assay type: cell-based; details: read-out: Activity for inhibiting proliferation of rat A10 cells [IC50 (μM)]
Procedure: (2) Measurement of the Activity for Inhibiting Proliferation of Rat A10 Cells
(§1) Test was conducted by the modified method of N. Morisaki [Atherosclerosis, Vol. 71, (1988), pp. 165-171]. The rat A10 cells (purchased from Dainippon Pharmaceutical Co., Ltd.) were inoculated on a 24 wells immunoplate at a density of 10,000 cells/well, and were cultured in 10% FBS (fetal bovine serum) for 2 days, and in order to introduce the cells into the resting stage, the cells were further cultured in a serum-free medium for 2 days. After that, 1% FBS was added thereto for stimulating the proliferation, of the cells and at the same time, a test compound and 0.5 μCi/well of [^3 H]-thymidine were added. As to the index of synthesized amount of DNA, the quantity of [^3 H]-thymidine being uptaken by the cells was measured at the time of 24 hours after the final cultivation was started.

[2] = target: T1, cGMP-PDE (Homo sapiens, UniProt O76074); assay: Activity for inhibiting cGMP PDE (PDE partially purified from human platelets, FI fraction); assay type: biochemical; details: 0.4 μM of [3H]-cGMP
T1 construct: Separation and partial purification of PDE (phosphodiesterase) from human platelets; from tissue; host or cells: human platelets (supernatant, DEAE-cellulose FI fraction)
Procedure: (1) Measurement of the Activity for Inhibiting cGMP PDE
Separation and partial purification of PDE (phosphodiesterase) from human platelets, and measurement of the activity for inhibiting cGMP PDE were conducted by the method of Hidaka, et al. [Biochimica et Biophysica Acta, Vol. 429, (1976), pp. 485-497]. The platelets obtained from human healthy adult were washed, and suspended in TRIS-buffer solution, then said suspension was treated by centrifugal separation, the supernatant was subjected to a DEAE-cellulose treatment and fractionated into FI to FIII fractions by a method of concentration gradient of sodium acetate. Thus obtained FI fraction was used as the sample of cGMP-PDE. The activity for inhibiting cGMP-PDE was measured by using 0.4 μM of [^3 H]-cGMP.

[3] = tested on: human fibroblast; assay: Activity for inhibiting proliferation of the human fibroblast ([3H]-thymidine uptake); assay type: cell-based
Procedure: as §1
(3) Measurement of the Activity for Inhibiting Proliferation of the Human Fibroblast
Similar to the activity for inhibiting proliferation of rat A10 cells as mentioned above, the activity for inhibiting proliferation of the human fibroblast (purchased from Dainippon Pharmaceutical Co., Ltd.) was determined by measuring the uptake amount of [^3 H]-thymidine.

[4] = A10, 1% FBS stimulation, 24 hours

SMILES: O=C(Nc1ccc2[nH]ccc2c1)c1nc2ccc(Cl)cc2n1Cc1ccccc1 [Example 2]
- IC50 ([1]; A10, 24 h): 0.4 µM
- IC50 [2]: 0.02 µM

SMILES: Cc1noc(C)c1C(=O)NCCCN1CCc2cc(NC(=O)c3nc4ccc(Cl)cc4n3Cc3ccccc3)ccc21 [Example 33]
- IC50 [3]: 0.042 µM
- IC50 [1, 4]: 1.27 µM
- IC50 [2]: < 0.01 µM

SMILES: CC(C)n1nnnc1CN1C(=O)CCc2cc(NC(=O)c3nc4ccc(Cl)cc4n3Cc3ccccc3)ccc21 [Example 45]
- IC50 [3]: 0.041 µM

SMILES: O=C1CCc2cc(NC(=O)c3nc4ccc(Cl)cc4n3Cc3ccccc3)ccc2N1 [Example 41, 1-benzyl-6-chloro-2-(3,4-dihydro-2(1H)-quinolinon-6-ylaminocarbonyl)benzimidazole]
- IC50 [2]: 0.02 µM

SMILES: O=C(Nc1ccc2c(ccn2CCCn2cccn2)c1)c1nc2ccc(Cl)cc2n1Cc1ccccc1 [Example 6]
- IC50 [1, 4]: 0.66 µM

SMILES: CN(C)CCN(C)CCCN1C(=O)CCc2cc(NC(=O)c3nc4ccc(Cl)cc4n3Cc3ccccc3)ccc21 [Example 44]
- IC50 [2]: 0.014 µM

SMILES: CN(CCCn1ccc2cc(NC(=O)c3nc4ccc(Cl)cc4n3Cc3ccccc3)ccc21)C1CCCCC1 [Example 4]
- IC50 [1, 4]: 0.3 µM
- IC50 [2]: 0.06 µM

SMILES: COC(=O)n1ccc2cc(NC(=O)c3nc4ccc(Cl)cc4n3Cc3ccccc3)ccc21 [Example 9]
- IC50 [2]: 0.08 µM

SMILES: C=CCN1C(=O)CCc2cc(NC(=O)c3nc4ccc(Cl)cc4n3Cc3ccccc3)ccc21 [Example 42]
- IC50 [1, 4]: 0.95 µM
- IC50 [2]: 0.1 µM

SMILES: CC(C)c1nccn1CCCn1ccc2cc(CNC(=O)c3nc4ccc(Cl)cc4n3Cc3ccccc3)ccc21 [Example 18]
- IC50 [1, 4]: 0.48 µM

SMILES: O=C(NCCCn1ccc2cc(NC(=O)c3nc4ccc(Cl)cc4n3Cc3ccccc3)ccc21)c1cccnc1 [Example 11, 1-benzyl-6-chloro-2-{1-[3-(pyridin-3-ylcarbonylamino)propyl]indol-5-ylaminocarbonyl}benzimidazole]
- IC50 [1, 4]: 0.97 µM
- IC50 [2]: 0.01 µM

SMILES: N#Cc1cccc(OCCCn2ccc3cc(NC(=O)c4nc5ccc(Cl)cc5n4Cc4ccccc4)ccc32)c1 [Example 25]
- IC50 [2]: 0.12 µM

SMILES: O=C(Nc1ccc2[nH]c(=O)ccc2c1)c1nc2ccc(Cl)cc2n1Cc1ccccc1 [Example 46, 1-benzyl-6-chloro-2-[2(1H)-quinolinon-6-ylamino-caronyl]benzimidazole]
- IC50 [2]: < 0.01 µM

SMILES: Cc1noc(C)c1C(=O)NCCCn1ccc2cc(NC(=O)c3nc4ccc(Cl)cc4n3Cc3ccccc3)ccc21 [Example 12]
- IC50 [1, 4]: 0.69 µM

SMILES: O=C(NCCCN1CCc2cc(NC(=O)c3nc4ccc(Cl)cc4n3Cc3ccccc3)ccc21)c1ccc[nH]1 [Example 28]
- IC50 [2]: < 0.01 µM

SMILES: O=C(Nc1ccc2c(ccn2CCCn2cncn2)c1)c1nc2ccc(Cl)cc2n1Cc1ccccc1 [Example 7]
- IC50 [1, 4]: 0.49 µM

SMILES: CC(C)n1nnnc1Cn1ccc2cc(NC(=O)c3nc4ccc(Cl)cc4n3Cc3ccccc3)ccc21 [Example 16]
- IC50 [3]: 0.049 µM

SMILES: O=C(Nc1ccc2[nH]ncc2c1)c1nc2ccc(Cl)cc2n1Cc1ccccc1 [Example 21]
- IC50 [2]: 0.02 µM

SMILES: O=C(Nc1ccc2c(c1)CCN2CCCN1CCC(O)(c2ccccc2)CC1)c1nc2ccc(Cl)cc2n1Cc1ccccc1 [Example 20]
- IC50 ([1]; A10, 24 h): 0.85 µM
- IC50 [2]: 0.01 µM

SMILES: O=C(NCCCN1CCOc2cc(NC(=O)c3nc4ccc(Cl)cc4n3Cc3ccccc3)ccc21)c1ccccn1 [Example 47]
- IC50 [3]: 0.021 µM
- IC50 [1, 4]: 0.67 µM
- IC50 [2]: < 0.01 µM
